# Results published in publication PMC4105339 (Antiviral research, 2014).
# Marks after values point to notes of the source that are not given here.
# Tests used:
# [1] = test system: A/Fukui/45/04 H3N2 E119V mutant neuraminidase
# [2] = test system: B/Perth/211/01 D197E mutant neuraminidase
# [3] = target: B/Perth/211/01 D197E mutant neuraminidase; conditions: cited from earlier work
# [4] = test system: A/Mississippi/03/01 H1N1 H274Y mutant neuraminidase
# [5] = test system: H3N2 E119V neuraminidase; conditions: cited from earlier work
Structure (SMILES),Time (T½) for reaction rates to reach half the maximum rate of the uninhibited control [1],Time (T½) for reaction rates to reach half the maximum rate of the uninhibited control [2],IC50 [3],Time (T½) for reaction rates to reach half the maximum rate of the uninhibited control [4],changes in IC50 from 10 to 60 min in the preincubation reaction [5]
"CCC(CC)[C@H](NC(C)=O)[C@@H]1[C@H](O)[C@@H](C(=O)O)C[C@H]1N=C(N)N [Peramivir, peramivir]",>240 min,18.8 min,41.5 nM,,
CC(=O)N[C@H]1[C@H]([C@H](O)[C@H](O)CO)OC(C(=O)O)=C[C@@H]1N=C(N)N [Zanamivir],,17.0^* min,258 nM,43.2 min,1.9 fold
